Bridge positions count the residues as written; N and C are the ends. Square brackets hold non-standard residues; d marks the D form. Peptide text beside a SMILES is read from it. * marks the point of attachment. Phe(4-COOH) = N[C@@H](Cc1ccc(C(=O)O)cc1)C(=O)O; Bip = N[C@@H](Cc1ccc(-c2ccccc2)cc1)C(=O)O; Phe(3-Me) = Cc1cccc(C[C@H](N)C(=O)O)c1; Pro(4R-NH2) = N[C@H]1CN[C@H](C(=O)O)C1; hArg = N=C(N)NCCCC[C@H](N)C(=O)O; Cha = N[C@@H](CC1CCCCC1)C(=O)O; Carboxymethyl = O=C(O)C*; Orn = NCCC[C@H](N)C(=O)O; Aun = NCCCCCCCCCCC(=O)O; Dab = NCC[C@H](N)C(=O)O; Dap = NC[C@H](N)C(=O)O; AEEA = NCCOCCOCC(=O)O
Molecular target: T1, PD-1/PD-L1 interaction (PE-labeled human PD-L1-Ig binding to Jurkat cell line over-expressing human PD-1) (Homo sapiens, UniProt Q15116)
T1 construct: expressed in transfected cells; host or cells: Jurkat
T1 sequence (Q15116 25-288): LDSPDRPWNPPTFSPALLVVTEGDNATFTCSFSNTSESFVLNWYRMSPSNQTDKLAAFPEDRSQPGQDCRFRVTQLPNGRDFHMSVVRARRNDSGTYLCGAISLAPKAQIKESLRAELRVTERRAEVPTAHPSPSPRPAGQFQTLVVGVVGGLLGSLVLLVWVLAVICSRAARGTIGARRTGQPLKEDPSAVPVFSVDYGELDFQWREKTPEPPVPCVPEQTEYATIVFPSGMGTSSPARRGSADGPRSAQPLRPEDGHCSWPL
Assay: Jurkat-PD-1 Cell Binding High-Content Screening Assay (CBA)
Type: cell-based
Conditions: Jurkat cell line over-expressing human PD-1; PE-labeled PD-L1-Ig 20 nM final; read-out: Jurkat hPD1-PDL1 IC50
In short: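 First, compound is added to PD-1-expressing Jurkat cells in serum-containing DMEM and left 2 h at 37° C. Next, PE-conjugated PD-L1-Ig is introduced at 20 nM final concentration for 1 hour. Finally, cells are fixed in 4% paraformaldehyde with Hoechst 33342, washed and imaged.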

IC50 [nM] | Compound
11.7 | CC(C)C[C@H]1NC(=O)[C@H](CCCN)NC(=O)[C@H](C(C)C)NC(=O)[C@H](Cc2ccc(-c3ccccc3)cc2)NC(=O)[C@H](C(C)C)NC(=O)[C@H](Cc2c[nH]c3ccccc23)NC(=O)[C@H](CC(=O)O)NC(=O)[C@H](Cc2ccc(OCC(=O)O)cc2)NC(=O)[C@H](CCCNC(=N)N)NC(=O)CSC[C@@H](C(=O)NCC(=O)NCCOCCOCC(=O)N[C@@H](CCCN)C(=O)NCCCCCCCCCCC(=O)O)NC(=O)[C@H](CCN)NC(=O)[C@H](C(C)C)NC(=O)[C@H](CC2CCCCC2)NC(=O)[C@H](CCN)NC1=O [Compound 3241] ({CH2CO}-RY(Carboxymethyl)DWV[Bip]V[Orn][dL][Dab][Cha]V[Dab]CG[AEEA][Orn][Aun]-OH; thioether N-14)
700 | CC(C)C[C@H]1NC(=O)[C@H](CCCN)NC(=O)[C@H](C(C)C)NC(=O)[C@H](Cc2ccc(-c3ccccc3)cc2)NC(=O)[C@H](C(C)C)NC(=O)[C@H](Cc2c[nH]c3ccccc23)NC(=O)[C@H](CC(=O)O)NC(=O)[C@H](Cc2ccc(OCC(=O)O)cc2)NC(=O)[C@H](CCCNC(=N)N)NC(=O)CSC[C@@H](C(=O)NCC(=O)NCCOCCOCC(=O)N[C@@H](CCCN)C(=O)NCCCCCCCCCCC(=O)O)NC(=O)[C@H](CCN)NC(=O)[C@H](C(C)C)NC(=O)[C@H](CC2CCCCC2)NC(=O)[C@@H]2C[C@@H](N)CN2C1=O [Compound 3242] ({CH2CO}-RY(Carboxymethyl)DWV[Bip]V[Orn][dL][Pro(4R-NH2)][Cha]V[Dab]CG[AEEA][Orn][Aun]-OH; thioether N-14)
10.9 | CC(C)C[C@H]1NC(=O)[C@H](CCN)NC(=O)[C@H](C(C)C)NC(=O)[C@H](Cc2ccc(-c3ccccc3)cc2)NC(=O)[C@H](C(C)C)NC(=O)[C@H](Cc2c[nH]c3ccccc23)NC(=O)[C@H](CC(=O)O)NC(=O)[C@H](Cc2ccc(C(=O)O)cc2)NC(=O)[C@H](Cc2ccc(OCC(=O)O)cc2)NC(=O)CSC[C@@H](C(=O)N[C@@H](CCN)C(=O)NCCOCCOCC(=O)NCCCCCCCCCCC(=O)O)NC(=O)[C@H](CCCN)NC(=O)[C@H](C(C)C)NC(=O)[C@H](CC2CCCCC2)NC(=O)[C@H](CCN)NC1=O [Compound 3243] ({CH2CO}-Y(Carboxymethyl)[Phe(4-COOH)]DWV[Bip]V[Dab][dL][Dab][Cha]V[Orn]C[Dab][AEEA][Aun]-OH; thioether N-14)
10.9 | Cc1cccc(C[C@@H]2NC(=O)[C@H](CC(=O)O)NC(=O)[C@H](Cc3ccc(OCC(=O)O)cc3)NC(=O)[C@H](CCCCNC(=N)N)NC(=O)CSC[C@@H](C(=O)N[C@@H](CCN)C(=O)NCCOCCOCC(=O)NCCCCCCCCCCC(=O)O)NC(=O)[C@H](CCCN)NC(=O)[C@H](C(C)C)NC(=O)[C@H](CC3CCCCC3)NC(=O)[C@H](CCN)NC(=O)[C@@H](CC(C)C)NC(=O)[C@H](CN)NC(=O)[C@H](C(C)C)NC(=O)[C@H](Cc3ccc(-c4ccccc4)cc3)NC(=O)[C@H](C(C)C)NC2=O)c1 [Compound 3244] ({CH2CO}-[hArg]Y(Carboxymethyl)D[Phe(3-Me)]V[Bip]V[Dap][dL][Dab][Cha]V[Orn]C[Dab][AEEA][Aun]-OH; thioether N-14)
11 | Cc1cccc(C[C@@H]2NC(=O)[C@H](CC(=O)O)NC(=O)[C@H](Cc3ccc(OCC(=O)O)cc3)NC(=O)[C@H](CCCCNC(=N)N)NC(=O)CSC[C@@H](C(=O)N[C@@H](CCN)C(=O)NCCOCCOCC(=O)NCCCCCCCCCCC(=O)O)NC(=O)[C@H](CCCN)NC(=O)[C@H](C(C)C)NC(=O)[C@H](CC3CCCCC3)NC(=O)[C@H](CCN)NC(=O)[C@@H](CC(C)C)NC(=O)[C@H](CCCN)NC(=O)[C@H](C(C)C)NC(=O)[C@H](Cc3ccc(-c4ccccc4)cc3)NC(=O)[C@H](C(C)C)NC2=O)c1 [Compound 3245] ({CH2CO}-[hArg]Y(Carboxymethyl)D[Phe(3-Me)]V[Bip]V[Orn][dL][Dab][Cha]V[Orn]C[Dab][AEEA][Aun]-OH; thioether N-14)
